How the values were obtained:
[1] = Polymorph screening of solid state drug substances; conditions: for XRPD results (Dried): stirred 50 °C 72 hours, solids dried; for Visual observation 50° C. / Visual observation RT: target conc. 100 mg/ml
[2] = Solubility determination in oil (cottonseed oil, sesame oil)
Method: A known amount of test substance (˜40 mg) was weighed into the vial, 100 μL of oil was added and heated to 60° C. and then system was slurried to reach equilibrium. […] Extra oil was added into the vial once compound precipitated out and then the system was re-equilibrated at 1000 rpm at room temperature (25° C.). Final concentration was determined by HPLC method as described below in Table 6a and 6b.

[3] = Plasma stability assay, rat plasma; format: in vitro ADME; conditions: 37° C., 10 μM
Method: Plasma stability determination of the test compounds in rat, dog, cynomolgus monkey and human plasma is performed using HPLC-MS. For rat, incubations are carried out in 96-well polypropylene plates in 5 aliquots of 70 μL each (one for each time point). […] Five time points are analyzed (0, 15, 120, 480 and 1440 min). For dog, monkey and human, test compounds (2 μM, final solvent concentration 1%) were also incubated at 37° C. and analyzed at five time points (0, 10, 30, 60 and 120 min). All incubations are performed in duplicates. The samples are analyzed by HPLC-MS. The percentage of parent compound remaining after incubation in plasma is determined.

[4] = heating temp. 60 °C, obs. temp. 40 °C
[5] = heating temp. 60 °C, obs. temp. 25 °C
[6] = heating temp. 40 °C, obs. temp. 40 °C

| Compound | Approximate Solubility (mg/mL) in Excipient: Sesame oil [2, 5] | % remaining at time point in minutes, 0 min [3] | % remaining at time point in minutes, 15 min [3] | % remaining at time point in minutes, 120 min [3] | % remaining at time point in minutes, 480 min [3] | % remaining at time point in minutes, 1440 min [3] | also measured |
| --- | --- | --- | --- | --- | --- | --- | --- |
| C=C1CC[C@@]2(O)C3Cc4ccc(OC(=O)CCCCCCCCCCCCCCCCCCC)c5c4[C@@]2(CCN3CC2CC2)[C@H]1O5 [Compound 16, (4aS,7aS,12bS)-3-(cyclopropylmethyl)-4a-hydroxy-7-methylene-2,3,4,4a,5,6,7,7a-octahydro-1H-4,12-methanobenzofuro[3,2-e]isoquinolin-9-yl icosanoate] |  |  |  |  |  |  | XRPD results (Dried) ([1]; Acetone): Pattern A; Visual observation 50° C. ([1]; Acetone): Clear; Visual observation RT ([1]; Acetone): Slurry; XRPD results (Dried) ([1]; EtOAc): Pattern A; Visual observation 50° C. ([1]; EtOAc): Clear; Visual observation RT ([1]; EtOAc): Slurry; XRPD results (Dried) ([1]; Heptane): Pattern A; Visual observation 50° C. ([1]; Heptane): Slurry; Visual observation RT ([1]; Heptane): Slurry; XRPD results (Dried) ([1]; Isopropanol): Pattern A; Visual observation 50° C. ([1]; Isopropanol): Slurry; Visual observation RT ([1]; Isopropanol): Slurry; XRPD results (Dried) ([1]; MTBE): Pattern A; Visual observation 50° C. ([1]; MTBE): Clear; Visual observation RT ([1]; MTBE): Clear; Comment: stability of initial crystal form (pattern A) ([1]; polymorph screen over Heptane, MTBE, Isopropanol, EtOAc, Acetone): likely stable form. Same crystal form; Approximate Solubility (mg/mL) in Excipient: Sesame oil [2, 4]: 202 to 404 mg/mL |
| C=C1CC[C@@]2(O)C3Cc4ccc(OC(=O)OCCCCCCCCCCCCCCCCCC)c5c4[C@@]2(CCN3CC2CC2)[C@H]1O5 [Compound 33, (4aS,7aS,12bS)-3-(cyclopropylmethyl)-4a-hydroxy-7-methylene-2,3,4,4a,5,6,7,7a-octahydro-1H-4,12-methanobenzofuro[3,2-e]isoquinolin-9-yl octadecyl carbonate] | <51 mg/mL |  |  |  |  |  |  |
| CC(C)(C)CC(=O)Oc1ccc2c3c1O[C@H]1C(=O)CC[C@@]4(O)C(C2)N(CC2CC2)CC[C@]314 [Compound 42, (4aS,7aR,12bS)-3-(cyclopropylmethyl)-4a-hydroxy-7-oxo-2,3,4,4a,5,6,7,7a-octahydro-1H-4,12-methanobenzofuro[3,2-e]isoquinolin-9-yl 3,3-dimethylbutanoate] |  |  |  |  |  |  | Approximate Solubility (mg/mL) in Excipient: Sesame oil [2, 6]: <52 mg/mL; Approximate Solubility (mg/mL) in Excipient: Sesame oil [2, 4]: <25.8 mg/mL |
| CCCCCCCCCCCCCCCC(=O)OCOc1ccc2c3c1O[C@H]1C(=O)CC[C@@]4(O)C(C2)N(CC2CC2)CC[C@]314 [Compound 49, (((4aS,7aR,12bS)-3-(cyclopropylmethyl)-4a-hydroxy-7-oxo-2,3,4,4a,5,6,7,7a-octahydro-1H-4,12-methanobenzofuro[3,2-e]isoquinolin-9-yl)oxy)methyl hexadecanoate] | <51 mg/mL |  |  |  |  |  |  |
| CCCCCCCCCCCCCCOC(=O)OCOc1ccc2c3c1O[C@H]1C(=O)CC[C@@]4(O)C(C2)N(CC2CC2)CC[C@]314 [Compound 27, (((4aS,7aR,12bS)-3-(cyclopropylmethyl)-4a-hydroxy-7-oxo-2,3,4,4a,5,6,7,7a-octahydro-1H-4,12-methanobenzofuro[3,2-e]isoquinolin-9-yl)oxy)methyl tetradecyl carbonate] | >399.2 mg/mL |  |  |  |  |  |  |
| CCCCCCCCCCCCCCCCCC(=O)Oc1ccc2c3c1O[C@H]1C(=O)CC[C@@]4(O)C(C2)N(CC2CC2)CC[C@]314 [Compound 54, (4aS,7aR,12bS)-3-(cyclopropylmethyl)-4a-hydroxy-7-oxo-2,3,4,4a,5,6,7,7a-octahydro-1H-4,12-methanobenzofuro[3,2-e]isoquinolin-9-yl stearate] | <50 mg/mL | 100% | 98.8% | 62.4% | 45.6% | 19.4% |  |
| Enalapril maleate salt [reference compound] |  | 100% | 44% | 2.9% | 8.2% | 4.8% |  |
| C=C1CC[C@@]2(O)C3Cc4ccc(OC(=O)CCCCCCC/C=C\C/C=C\C/C=C\CC)c5c4[C@@]2(CCN3CC2CC2)[C@H]1O5 [Compound 20, (4aS,7aS,12bS)-3-(cyclopropylmethyl)-4a-hydroxy-7-methylene-2,3,4,4a,5,6,7,7a-octahydro-1H-4,12-methanobenzofuro[3,2-e]isoquinolin-9-yl (9Z,12Z,15Z)-octadeca-9,12,15-trienoate] |  |  |  |  |  |  | Approximate Solubility (mg/mL) in Excipient: Sesame oil [2, 6]: >406 mg/mL |
| CCCCCCCC/C=C\CCCCCCCCCCCC(=O)Oc1ccc2c3c1O[C@H]1C(=O)CC[C@@]4(O)C(C2)N(CC2CC2)CC[C@]314 [Compound 22, (4aS,7aR,12bS)-3-(cyclopropylmethyl)-4a-hydroxy-7-oxo-2,3,4,4a,5,6,7,7a-octahydro-1H-4,12-methanobenzofuro[3,2-e]isoquinolin-9-yl (Z)-docos-13-enoate] |  |  |  |  |  |  | Approximate Solubility (mg/mL) in Excipient: Ethanol ([2]; Ethanol, heating temp. 60 °C, obs. temp. 40 °C): >397.7 mg/mL; Approximate Solubility (mg/mL) in Excipient: Sesame oil [2, 4]: >401.9 mg/mL |
| CCCCC/C=C\C/C=C\CCCCCCCC(=O)Oc1ccc2c3c1O[C@H]1C(=O)CC[C@@]4(O)C(C2)N(CC2CC2)CC[C@]314 [Compound 53, (4aS,7aR,12bS)-3-(cyclopropylmethyl)-4a-hydroxy-7-oxo-2,3,4,4a,5,6,7,7a-octahydro-1H-4,12-methanobenzofuro[3,2-e]isoquinolin-9-yl (9Z,12Z)-octadeca-9,12-di.enoate] | >401.9 mg/mL | 100% | 46.85% | 19.6% | 7.3% | 1.9% | Approximate Solubility (mg/mL) in Excipient: Cottonseed oil [2, 5]: >408.5 mg/mL; Approximate Solubility (mg/mL) in Excipient: Sesame oil [2, 4]: >406.3 mg/mL |
| CCCCCCCCCCCCCCCCCCCCCC(=O)Oc1ccc2c3c1O[C@H]1C(=O)CC[C@@]4(O)C(C2)N(CC2CC2)CC[C@]314 [Compound 51, (4aS,7aR,12bS)-3-(cyclopropylmethyl)-4a-hydroxy-7-oxo-2,3,4,4a,5,6,7,7a-octahydro-1H-4,12-methanobenzofuro[3,2-e]isoquinolin-9-yl docosanoate] |  | 100% | 107.4% | 105.3% | 88.2% | 92.7% |  |
| C=C1CC[C@@]2(O)C3Cc4ccc(OC(=O)OCCCCCCCC)c5c4[C@@]2(CCN3CC2CC2)[C@H]1O5 [Compound 17, (4aS,7aS,12bS)-3-(cyclopropylmethyl)-4a-hydroxy-7-methylene-2,3,4,4a,5,6,7,7a-octahydro-1H-4,12-methanobenzofuro[3,2-e]isoquinolin-9-yl octyl carbonate] |  | 100% | 0% | 0% | 0% | 0% | Approximate Solubility (mg/mL) in Excipient: Cottonseed oil [2, 5]: >408 mg/mL |
| C=C1CC[C@@]2(O)C3Cc4ccc(OC(=O)CCC5CCCC5)c5c4[C@@]2(CCN3CC2CC2)[C@H]1O5 [Compound 39, (4aS,7aS,12bS)-3-(cyclopropylmethyl)-4a-hydroxy-7-methylene-2,3,4,4a,5,6,7,7a-octahydro-1H-4,12-methanobenzofuro[3,2-e]isoquinolin-9-yl 3-cyclopentylpropanoate] | 106 to 141 mg/mL |  |  |  |  |  |  |
| CCCCCCCCCCCCCCCCCCCC(=O)Oc1ccc2c3c1O[C@H]1C(=O)CC[C@@]4(O)C(C2)N(CC2CC2)CC[C@]314 [Compound 50, (4aS,7aR,12bS)-3-(cyclopropylmethyl)-4a-hydroxy-7-oxo-2,3,4,4a,5,6,7,7a-octahydro-1H-4,12-methanobenzofuro[3,2-e]isoquinolin-9-yl icosanoate] | <52 mg/mL | 100% | 114.5% | 102.7% | 83.3% | 73.9% |  |
| C=C1CC[C@@]2(O)C3Cc4ccc(OC(=O)OCCCCCCCCCCCCCCCCCCCC)c5c4[C@@]2(CCN3CC2CC2)[C@H]1O5 [Compound 28, (4aS,7aS,12bS)-3-(cyclopropylmethyl)-4a-hydroxy-7-methylene-2,3,4,4a,5,6,7,7a-octahydro-1H-4,12-methanobenzofuro[3,2-e]isoquinolin-9-yl icosyl carbonate] | <50.6 mg/mL |  |  |  |  |  |  |

— patent US10525055B2, “Opioid receptor antagonist prodrugs” (Nirsum Laboratories, Inc., priority 2017, dated 2020)
